{"source": "the supplement of paper PMC10307832", "experiment_in_all_cases": "relative viability (nuclei count vs DMSO), 5 days (fraction); higher = more cells survive", "key": {"ABC-1": {"test_system": "ABC-1", "outline": "(§1)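 Nuclei were stained with Hoechst during a one-step fixation (final 0.05% Triton X-100, 1% formaldehyde, 1 ug/ml Hoechst) carried out 5 days after dosing, then counted on 4× images. The cells, lung cancer lines in 1536-well plates, had been dosed by pin tool the day after seeding with one drug alone or a fixed anchor-drug dose plus five library-drug doses (not always all listed) in √10 steps. Relative viability is the nuclei count in treated wells divided by that in vehicle wells, and each value is the median of duplicate plates.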"}, "SW 900": {"test_system": "SW 900", "outline": "as §1"}, "NCI-H1755": {"test_system": "NCI-H1755", "outline": "as §1"}, "NCI-H2170": {"test_system": "NCI-H2170", "outline": "as §1"}, "NCI-H1437": {"test_system": "NCI-H1437", "outline": "as §1"}, "NCI-H1395": {"test_system": "NCI-H1395", "outline": "as §1"}, "EMC-BAC-2": {"test_system": "EMC-BAC-2", "outline": "as §1"}, "SK-LU-1": {"test_system": "SK-LU-1", "outline": "as §1"}, "PC-14": {"test_system": "PC-14", "outline": "as §1"}, "LCLC-97TM1": {"test_system": "LCLC-97TM1", "outline": "as §1"}, "LOU-NH91": {"test_system": "LOU-NH91", "outline": "as §1"}, "NCI-H1650": {"test_system": "NCI-H1650", "outline": "as §1"}, "NCI-H2009": {"test_system": "NCI-H2009", "outline": "as §1"}, "EPLC-272H": {"test_system": "EPLC-272H", "outline": "as §1"}, "NCI-H522": {"test_system": "NCI-H522", "outline": "as §1"}, "HCC-78": {"test_system": "HCC-78", "outline": "as §1"}, "HCC-827": {"test_system": "HCC-827", "outline": "as §1"}, "LK-2": {"test_system": "LK-2", "outline": "as §1"}, "CAL-12T": {"test_system": "CAL-12T", "outline": "as §1"}, "NCI-H2023": {"test_system": "NCI-H2023", "outline": "as §1"}, "UMC-11": {"test_system": "UMC-11", "outline": "as §1"}, "NCI-H596": {"test_system": "NCI-H596", "outline": "as §1"}, "NCI-H727": {"test_system": "NCI-H727", "outline": "as §1"}, "BEN": {"test_system": "BEN", "outline": "as §1"}, "EKVX": {"test_system": "EKVX", "outline": "as §1"}}, "data": [{"smiles": "Nc1cccc2c1CN(C1CCC(=O)NC1=O)C2=O", "note": "(stereo unspecified) [Lenalidomide] + O=C(c1cc(Cc2n[nH]c(=O)c3ccccc23)ccc1F)N1CCN(C(=O)C2CC2)CC1 [Olaparib] (partner 8 µM)", "values": [{"measurement": "relative viability", "setting": "ABC-1; first compound 0.253 µM", "value": 0.654}, {"measurement": "relative viability", "setting": "ABC-1; first compound 0.8 µM", "value": 0.764}, {"measurement": "relative viability", "setting": "ABC-1; first compound 2.53 µM", "value": 0.861}, {"measurement": "relative viability", "setting": "ABC-1; first compound 8 µM", "value": 1.03}, {"measurement": "relative viability", "setting": "SW 900; first compound 2.53 µM", "value": 0.913}, {"measurement": "relative viability", "setting": "SW 900; first compound 8 µM", "value": 0.858}, {"measurement": "relative viability", "setting": "NCI-H1755; first compound 0.253 µM", "value": 0.86}, {"measurement": "relative viability", "setting": "NCI-H1755; first compound 0.8 µM", "value": 0.861}, {"measurement": "relative viability", "setting": "NCI-H1755; first compound 2.53 µM", "value": 0.899}, {"measurement": "relative viability", "setting": "NCI-H1755; first compound 8 µM", "value": 0.777}, {"measurement": "relative viability", "setting": "NCI-H2170; first compound 0.253 µM", "value": 0.57}, {"measurement": "relative viability", "setting": "NCI-H2170; first compound 0.8 µM", "value": 0.611}, {"measurement": "relative viability", "setting": "NCI-H2170; first compound 2.53 µM", "value": 0.67}, {"measurement": "relative viability", "setting": "NCI-H2170; first compound 8 µM", "value": 0.553}, {"measurement": "relative viability", "setting": "NCI-H1437; first compound 0.253 µM", "value": 0.612}, {"measurement": "relative viability", "setting": "NCI-H1437; first compound 0.8 µM", "value": 0.629}, {"measurement": "relative viability", "setting": "NCI-H1437; first compound 2.53 µM", "value": 0.638}, {"measurement": "relative viability", "setting": "NCI-H1437; first compound 8 µM", "value": 0.677}, {"measurement": "relative viability", "setting": "NCI-H1395; first compound 0.253 µM", "value": 0.453}, {"measurement": "relative viability", "setting": "NCI-H1395; first compound 2.53 µM", "value": 0.523}, {"measurement": "relative viability", "setting": "NCI-H1395; first compound 8 µM", "value": 0.458}, {"measurement": "relative viability", "setting": "EMC-BAC-2; first compound 0.253 µM", "value": 0.479}, {"measurement": "relative viability", "setting": "EMC-BAC-2; first compound 0.8 µM", "value": 0.395}, {"measurement": "relative viability", "setting": "EMC-BAC-2; first compound 2.53 µM", "value": 0.52}, {"measurement": "relative viability", "setting": "EMC-BAC-2; first compound 8 µM", "value": 0.461}, {"measurement": "relative viability", "setting": "SK-LU-1; first compound 0.253 µM", "value": 0.409}, {"measurement": "relative viability", "setting": "SK-LU-1; first compound 0.8 µM", "value": 0.542}, {"measurement": "relative viability", "setting": "SK-LU-1; first compound 2.53 µM", "value": 0.615}, {"measurement": "relative viability", "setting": "SK-LU-1; first compound 8 µM", "value": 0.392}, {"measurement": "relative viability", "setting": "PC-14; first compound 0.253 µM", "value": 0.302}, {"measurement": "relative viability", "setting": "PC-14; first compound 0.8 µM", "value": 0.243}, {"measurement": "relative viability", "setting": "PC-14; first compound 2.53 µM", "value": 0.374}, {"measurement": "relative viability", "setting": "PC-14; first compound 8 µM", "value": 0.436}, {"measurement": "relative viability", "setting": "LCLC-97TM1; first compound 0.253 µM", "value": 0.403}, {"measurement": "relative viability", "setting": "LCLC-97TM1; first compound 0.8 µM", "value": 0.38}, {"measurement": "relative viability", "setting": "LCLC-97TM1; first compound 2.53 µM", "value": 0.433}, {"measurement": "relative viability", "setting": "LCLC-97TM1; first compound 8 µM", "value": 0.36}, {"measurement": "relative viability", "setting": "LOU-NH91; first compound 0.253 µM", "value": 0.934}, {"measurement": "relative viability", "setting": "LOU-NH91; first compound 0.8 µM", "value": 0.948}, {"measurement": "relative viability", "setting": "LOU-NH91; first compound 2.53 µM", "value": 0.906}, {"measurement": "relative viability", "setting": "LOU-NH91; first compound 8 µM", "value": 0.898}, {"measurement": "relative viability", "setting": "NCI-H1650; first compound 0.253 µM", "value": 0.681}, {"measurement": "relative viability", "setting": "NCI-H1650; first compound 0.8 µM", "value": 0.712}, {"measurement": "relative viability", "setting": "NCI-H1650; first compound 2.53 µM", "value": 0.945}, {"measurement": "relative viability", "setting": "NCI-H1650; first compound 8 µM", "value": 0.933}, {"measurement": "relative viability", "setting": "NCI-H2009; first compound 0.253 µM", "value": 0.623}, {"measurement": "relative viability", "setting": "NCI-H2009; first compound 0.8 µM", "value": 0.654}, {"measurement": "relative viability", "setting": "NCI-H2009; first compound 2.53 µM", "value": 0.827}, {"measurement": "relative viability", "setting": "NCI-H2009; first compound 8 µM", "value": 0.693}, {"measurement": "relative viability", "setting": "EPLC-272H; first compound 0.253 µM", "value": 0.777}, {"measurement": "relative viability", "setting": "EPLC-272H; first compound 2.53 µM", "value": 0.613}, {"measurement": "relative viability", "setting": "EPLC-272H; first compound 8 µM", "value": 0.657}, {"measurement": "relative viability", "setting": "NCI-H522; first compound 0.253 µM", "value": 0.676}, {"measurement": "relative viability", "setting": "NCI-H522; first compound 0.8 µM", "value": 0.672}, {"measurement": "relative viability", "setting": "NCI-H522; first compound 2.53 µM", "value": 0.58}, {"measurement": "relative viability", "setting": "NCI-H522; first compound 8 µM", "value": 0.608}, {"measurement": "relative viability", "setting": "HCC-78; first compound 0.253 µM", "value": 0.861}, {"measurement": "relative viability", "setting": "HCC-78; first compound 0.8 µM", "value": 0.858}, {"measurement": "relative viability", "setting": "HCC-78; first compound 2.53 µM", "value": 0.87}, {"measurement": "relative viability", "setting": "HCC-78; first compound 8 µM", "value": 0.814}, {"measurement": "relative viability", "setting": "HCC-827; first compound 0.253 µM", "value": 0.633}, {"measurement": "relative viability", "setting": "HCC-827; first compound 0.8 µM", "value": 0.57}, {"measurement": "relative viability", "setting": "HCC-827; first compound 2.53 µM", "value": 0.668}, {"measurement": "relative viability", "setting": "HCC-827; first compound 8 µM", "value": 0.612}, {"measurement": "relative viability", "setting": "LK-2; first compound 0.253 µM", "value": 0.881}, {"measurement": "relative viability", "setting": "LK-2; first compound 0.8 µM", "value": 0.413}, {"measurement": "relative viability", "setting": "LK-2; first compound 2.53 µM", "value": 0.571}, {"measurement": "relative viability", "setting": "LK-2; first compound 8 µM", "value": 0.387}, {"measurement": "relative viability", "setting": "CAL-12T; first compound 0.253 µM", "value": 0.807}, {"measurement": "relative viability", "setting": "CAL-12T; first compound 0.8 µM", "value": 0.729}, {"measurement": "relative viability", "setting": "CAL-12T; first compound 2.53 µM", "value": 0.757}, {"measurement": "relative viability", "setting": "CAL-12T; first compound 8 µM", "value": 0.941}, {"measurement": "relative viability", "setting": "NCI-H2023; first compound 0.253 µM", "value": 0.46}, {"measurement": "relative viability", "setting": "NCI-H2023; first compound 0.8 µM", "value": 0.469}, {"measurement": "relative viability", "setting": "NCI-H2023; first compound 2.53 µM", "value": 0.492}, {"measurement": "relative viability", "setting": "NCI-H2023; first compound 8 µM", "value": 0.453}, {"measurement": "relative viability", "setting": "UMC-11; first compound 0.253 µM", "value": 0.398}, {"measurement": "relative viability", "setting": "UMC-11; first compound 0.8 µM", "value": 0.695}, {"measurement": "relative viability", "setting": "UMC-11; first compound 2.53 µM", "value": 0.416}, {"measurement": "relative viability", "setting": "UMC-11; first compound 8 µM", "value": 0.405}, {"measurement": "relative viability", "setting": "NCI-H596; first compound 0.253 µM", "value": 0.758}, {"measurement": "relative viability", "setting": "NCI-H596; first compound 0.8 µM", "value": 0.705}, {"measurement": "relative viability", "setting": "NCI-H596; first compound 2.53 µM", "value": 0.77}, {"measurement": "relative viability", "setting": "NCI-H596; first compound 8 µM", "value": 0.77}, {"measurement": "relative viability", "setting": "NCI-H727; first compound 0.253 µM", "value": 0.732}, {"measurement": "relative viability", "setting": "NCI-H727; first compound 0.8 µM", "value": 0.706}, {"measurement": "relative viability", "setting": "NCI-H727; first compound 2.53 µM", "value": 0.633}, {"measurement": "relative viability", "setting": "NCI-H727; first compound 8 µM", "value": 0.7}, {"measurement": "relative viability", "setting": "BEN; first compound 0.253 µM", "value": 1.07}, {"measurement": "relative viability", "setting": "BEN; first compound 0.8 µM", "value": 1.2}, {"measurement": "relative viability", "setting": "BEN; first compound 2.53 µM", "value": 1.08}, {"measurement": "relative viability", "setting": "BEN; first compound 8 µM", "value": 1.08}, {"measurement": "relative viability", "setting": "EKVX; first compound 0.253 µM", "value": 0.776}, {"measurement": "relative viability", "setting": "EKVX; first compound 0.8 µM", "value": 0.754}, {"measurement": "relative viability", "setting": "EKVX; first compound 2.53 µM", "value": 0.87}, {"measurement": "relative viability", "setting": "EKVX; first compound 8 µM", "value": 0.786}]}]}
